Assay results published in publication PMC117120 (BMC Biochemistry, 2002).
Substitutions are numbered along the chain they refer to. Where “and” joins values, the source holds several entries; their conditions need not be identical. Identical values can stand only once.

Key:
[1] = biological target: T1, Y142A mutant mouse 5-HT3ASR (Mus musculus, UniProt P23979, Y143A); test: Inhibition of [^3H]granisetron binding, Y142A receptor; details: for relative increase in Ki, mutant vs wildtype: Y142A vs wildtype
T1 sequence (P23979 24-483 isoform P23979-2 Y143A): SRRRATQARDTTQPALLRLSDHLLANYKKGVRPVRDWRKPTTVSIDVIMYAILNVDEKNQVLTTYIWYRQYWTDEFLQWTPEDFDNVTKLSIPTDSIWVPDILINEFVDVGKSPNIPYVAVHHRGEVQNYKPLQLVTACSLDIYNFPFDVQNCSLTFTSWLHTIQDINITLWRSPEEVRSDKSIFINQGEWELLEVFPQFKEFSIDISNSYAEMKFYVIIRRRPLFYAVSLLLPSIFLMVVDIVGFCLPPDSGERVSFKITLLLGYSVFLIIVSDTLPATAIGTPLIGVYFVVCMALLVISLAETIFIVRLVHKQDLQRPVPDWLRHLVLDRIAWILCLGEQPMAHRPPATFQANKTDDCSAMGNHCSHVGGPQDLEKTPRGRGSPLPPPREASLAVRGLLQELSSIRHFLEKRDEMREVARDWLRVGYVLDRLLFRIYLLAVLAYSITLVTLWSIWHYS

[2] = biological target: T2, Y152A mutant mouse 5-HT3ASR (Mus musculus, UniProt P23979, Y153A); test: Inhibition of [^3H]granisetron binding, Y152A receptor; details: for relative increase in Ki, mutant vs wildtype: Y152A vs wildtype
T2 sequence (P23979 24-483 isoform P23979-2 Y153A): T1 sequence (P23979 24-483 isoform P23979-2 Y143A) with A120Y, Y130A

[3] = biological target: T3, V143A mutant mouse 5-HT3ASR (Mus musculus, UniProt P23979, V144A); test: biochemical
T3 sequence (P23979 24-483 isoform P23979-2 V144A): T1 sequence (P23979 24-483 isoform P23979-2 Y143A) with A120Y, V121A

[4] = biological target: T4, E148A mutant mouse 5-HT3ASR (Mus musculus, UniProt P23979, E149A); test: biochemical
T4 sequence (P23979 24-483 isoform P23979-2 E149A): T1 sequence (P23979 24-483 isoform P23979-2 Y143A) with A120Y, E126A

[5] = biological target: T5, Q150A mutant mouse 5-HT3ASR (Mus musculus, UniProt P23979, Q151A); test: biochemical
T5 sequence (P23979 24-483 isoform P23979-2 Q151A): T1 sequence (P23979 24-483 isoform P23979-2 Y143A) with A120Y, Q128A

[6] = biological target: T6, N151A mutant mouse 5-HT3ASR (Mus musculus, UniProt P23979, N152A); test: biochemical
T6 sequence (P23979 24-483 isoform P23979-2 N152A): T1 sequence (P23979 24-483 isoform P23979-2 Y143A) with A120Y, N129A

Row | Compound | Ki [1] | relative increase in Ki, mutant vs wildtype [1] | Ki [2] | relative increase in Ki, mutant vs wildtype [2] | Ki [3] | Ki [4] | Ki [5] | Ki [6]
1 | COc1cc2c3cc1Oc1cc(ccc1O)C[C@@H]1c4c(cc(OC)c(O)c4Oc4ccc(cc4)C[C@@H]3N(C)CC2)CC[N+]1(C)C [d-tc, d-tubocurarine] | 39 ± 19 nM | 6.5 ± 1.5 fold and 6.5 fold | 60 ± 19 nM | 10.0 ± 2.3 fold and 10 fold | 22 ± 2.6 nM | 14 ± 1.7 nM | 9.3 ± 1.3 nM | 9.3 ± 1.4 nM
2 | c1ccc(Cn2c(N3CCNCC3)nc3ccccc32)cc1 [lerisetron] | 130 ± 28 nM | 160 ± 37 fold and 160 fold | 150 ± 36 nM | 190 ± 43 fold and 190 fold | 1.5 ± 0.41 nM | 2.8 ± 0.53 nM | 1.1 ± 0.21 nM | 3.7 ± 0.62 nM
